These results are taken from patent publication US11578073B2, “Xanthine analogs as potent anti-West Nile viral agents” (Southern Research Institute, priority 2019, dated 2023).

The nature of data set [1]: cell viability assay (cytotoxicity) in HEK293 cells. Type of data set: cell-based. The following applies: human, read-out: CC50 (50% cytotoxicity concentration).
The next data set deals with West Nile virus. As to the kind of experiment: anti-West Nile virus activity of xanthine analogs in HEK293 cells. Type of data set: cell-based. Conditions: HEK293, read-out: EC90 (effective concentration to inhibit 90% of virus).

As to `CC(C)(C)c1ccc(CN2CCN(c3nc4[nH]c(=O)[nH]c(=O)c4n3Cc3ccccc3F)CC2)cc1` [Compound 64, 8-(4-(4-(tert-butyl)benzyl)piperazin-1-yl)-7-(2-fluorobenzyl)-3,7-dihydro-1H-purine-2,6-dione], the CC50 in data set [1] amounted to 10 µM. In the data set on West Nile virus, the EC90 came out at 9 µM.
Consider `Cn1c(=O)[nH]c(=O)c2c1nc(N1CCN(c3ccc(Cl)cc3F)CC1)n2Cc1ccccc1F` [Compound 31, 8-(4-(4-Chloro-2-fluorophenyl)piperazin-1-yl)-7-(2-fluorobenzyl)-3-methyl-3,7-dihydro-1H-purine-2,6-dione], for which the EC90 in the data set on West Nile virus was greater than 10 µM.
Still for that read-out and setting: in the case of `Cc1ccc(C)c(CNCCNc2nc3c(c(=O)[nH]c(=O)n3C)n2Cc2ccccc2F)c1` [Compound 63, 8-((2-((2,5-dimethylbenzyl)amino)ethyl)amino)-7-(2-fluorobenzyl)-3-methyl-3,7-dihydro-1H-purine-2,6-dione] it was greater than 10 µM.
With `Cn1c(=O)[nH]c(=O)c2c1nc(N1CCN(Cc3ccc(C(C)(C)C)cc3)CC1)n2Cc1ccc(C(=O)O)cc1F` [Compound 19, 4-((8-(4-(4-(tert-butyl)benzyl)piperazin-1-yl)-3-methyl-2,6-dioxo-1,2,3,6-tetrahydro-7H-purin-7-yl)methyl)-3-fluorobenzoic Acid], the CC50 in data set [1] is greater than 40 µM. For the same compound, the EC90 with West Nile virus is greater than 10 µM.
`Cn1c(=O)n(O)c(=O)c2c1nc(N1CCN(Cc3ccc(C(C)(C)C)cc3)CC1)n2Cc1ccccc1F` [Compound 4, 8-(4-(4-(tert-butyl)benzyl)piperazin-1-yl)-7-(2-fluorobenzyl)-1-hydroxy-3-methyl-3,7-dihydro-1H-purine-2,6-dione]: the CC50 in data set [1] was greater than 40 µM. The EC90 in the data set on West Nile virus was greater than 30 µM.
In the case of `Cc1ccc(C)c(N2CCN(c3nc4c(c(=O)[nH]c(=O)n4C)n3Cc3ccccc3F)CC2)c1` [Compound 26, 8-(4-(2,5-Dimethylphenyl)piperazin-1-yl)-7-(2-fluorobenzyl)-3-methyl-3,7-dihydro-1H-purine-2,6-dione], in data set [1], the CC50 came out at 2.8 µM. Further, in the data set with West Nile virus, the EC90 is 4.5 µM.
Regarding `Cn1c(=O)[nH]c(=O)c2c1nc(N1CCN(c3ccc(C#N)cn3)CC1)n2Cc1ccccc1F` [Compound 32, 6-(4-(7-(2-Fluorobenzyl)-3-methyl-2,6-dioxo-2,3,6,7-tetrahydro-1H-purin-8-yl)piperazin-1-yl)nicotinonitrile], the EC90 in the data set on West Nile virus was greater than 10 µM.
On the same count and under the same terms, the same measure for `Cn1c(=O)[nH]c(=O)c2c1nc(N1CCC(Cc3cc(F)cc(F)c3)CC1)n2Cc1ccccc1F` [Compound 61, 8-(4-(3,5-Difluorobenzyl)piperidin-1-yl)-7-(2-fluorobenzyl)-3-methyl-3,7-dihydro-1H-purine-2,6-dione]: greater than 10 µM.
In the case of `Cc1ccc(C)c(CC(=O)N2CCN(c3nc4c(c(=O)[nH]c(=O)n4C)n3Cc3ccccc3F)CC2)c1` [Compound 48, 8-(4-(2-(2,5-Dimethylphenyl)acetyl)piperazin-1-yl)-7-(2-fluorobenzyl)-3-methyl-3,7-dihydro-1H-purine-2,6-dione], in the data set on West Nile virus, the EC90 was greater than 10 µM.
Take `Cn1c(=O)n(CCO)c(=O)c2c1nc(N1CCN(Cc3ccc(C(C)(C)C)cc3)CC1)n2Cc1ccccc1F` [Compound 6, 8-(4-(4-(tert-butyl)benzyl)piperazin-1-yl)-7-(2-fluorobenzyl)-1-(2-hydroxyethyl)-3-methyl-3,7-dihydro-1H-purine-2,6-dione]: the CC50 in data set [1] was determined as 12 µM. The EC90 with West Nile virus is 6 µM.
Regarding `Cn1c(=O)[nH]c(=O)c2c1nc(N1CCC(c3cccc(F)c3)CC1)n2Cc1ccccc1F` [Compound 57, 7-(2-Fluorobenzyl)-8-(4-(3-fluorophenyl)piperidin-1-yl)-3-methyl-3,7-dihydro-1H-purine-2,6-dione], in data set [1], the CC50 is greater than 30 µM. Also, in the data set on West Nile virus, the EC90 was found to be 4.4 µM.
Turning to `Cc1ccc(C)c(CN2CCN(c3nc4c(c(=O)[nH]c(=O)n4C)n3CC3CCCCC3)CC2)c1` [Compound 9, 7-(Cyclohexylmethyl)-8-(4-(2,5-dimethylbenzyl)piperazin-1-yl)-3-methyl-3,7-dihydro-1H-purine-2,6-dione], the CC50 in data set [1] was greater than 40 µM. Further, the EC90 in the data set on West Nile virus was 4.4 µM.
As to `Cn1c(=O)[nH]c(=O)c2c1nc(N1CCC(F)(F)CC1)n2Cc1ccccc1F` [Compound 53, 8-(4,4-Difluoropiperidin-1-yl)-7-(2-fluorobenzyl)-3-methyl-3,7-dihydro-1H-purine-2,6-dione], the EC90 in the data set with West Nile virus is greater than 10 µM.
For the compound `Cc1ccc(C)c(CCN2CCN(c3nc4c(c(=O)[nH]c(=O)n4C)n3Cc3ccccc3F)CC2)c1` [Compound 46, 8-(4-(2,5-Dimethylphenethyl)piperazin-1-yl)-7-(2-fluorobenzyl)-3-methyl-3,7-dihydro-1H-purine-2,6-dione], the EC90 with West Nile virus amounted to 10.2 µM.
As to `Cn1c(=O)[nH]c(=O)c2c1nc(N1CCNCC1)n2Cc1ccccc1F` [Compound 21, 7-(2-Fluorobenzyl)-3-methyl-8-(piperazin-1-yl)-3,7-dihydro-1H-purine-2,6-dione], in the data set with West Nile virus, the EC90 is greater than 10 µM.
As to `Cn1c(=O)[nH]c(=O)c2c1nc(N1CCN(CC(=O)c3ccc(C(C)(C)C)cc3)CC1)n2Cc1ccccc1F` [Compound 49, 8-(4-(2-(4-(tert-butyl)phenyl)-2-oxoethyl)piperazin-1-yl)-7-(2-fluorobenzyl)-3-methyl-3,7-dihydro-1H-purine-2,6-dione], in the data set with West Nile virus, the EC90 is greater than 10 µM.
On to `Cc1ccc(C)c(CN2CCN(c3nc4c(c(=O)[nH]c(=O)n4C)n3Cc3cccnc3)CC2)c1` [Compound 10, 8-(4-(2,5-Dimethylbenzyl)piperazin-1-yl)-3-methyl-7-(pyridin-3-ylmethyl)-3,7-dihydro-1H-purine-2,6-dione], for which the EC90 with West Nile virus was greater than 10 µM.
For the compound `Cn1c(=O)[nH]c(=O)c2c1nc(N1CCN(C(C)(C)C)CC1)n2Cc1ccccc1F` [Compound 24, 8-(4-(tert-Butyl)piperazin-1-yl)-7-(2-fluorobenzyl)-3-methyl-3,7-dihydro-1H-purine-2,6-dione], the EC90 in the data set with West Nile virus was greater than 10 µM.
On to `Cc1ccc(C)c(CN2CCN(c3nc4c([nH]3)c(=O)[nH]c(=O)n4C)CC2)c1` [Compound 7, 8-(4-(2,5-Dimethylbenzyl)piperazin-1-yl)-3-methyl-3,7-dihydro-1H-purine-2,6-dione], for which the EC90 in the data set on West Nile virus is greater than 10 µM.
With `Cn1c(=O)[nH]c(=O)c2c1nc(N1CCN(C(=O)c3ccc(C(C)(C)C)nc3)CC1)n2Cc1ccccc1F` [Compound 45, 8-(4-(6-(tert-Butyl)nicotinoyl)piperazin-1-yl)-7-(2-fluorobenzyl)-3-methyl-3,7-dihydro-1H-purine-2,6-dione], the EC90 in the data set on West Nile virus is greater than 10 µM.
In the case of `Cn1c(=O)[nH]c(=O)c2c1nc(N1CCC(Cc3ccc(C#N)cc3)CC1)n2Cc1ccccc1F` [Compound 59, 4-((1-(7-(2-Fluorobenzyl)-3-methyl-2,6-dioxo-2,3,6,7-tetrahydro-1H-purin-8-yl)piperidin-4-yl)methyl)benzonitrile], the EC90 with West Nile virus is greater than 10 µM.
For the compound `Cn1c(=O)[nH]c(=O)c2c1nc(N1CCN(C3CCC3)CC1)n2Cc1ccccc1F` [Compound 25, 8-(4-Cyclobutylpiperazin-1-yl)-7-(2-fluorobenzyl)-3-methyl-3,7-dihydro-1H-purine-2,6-dione], the EC90 in the data set on West Nile virus was greater than 10 µM.
Take `Cn1c(=O)[nH]c(=O)c2c1nc(N1CCC(F)(F)C1)n2Cc1ccccc1F` [Compound 51, 8-(3,3-Difluoropyrrolidin-1-yl)-7-(2-fluorobenzyl)-3-methyl-3,7-dihydro-1H-purine-2,6-dione]: the EC90 with West Nile virus is greater than 10 µM.
In the case of `Cn1c(=O)[nH]c(=O)c2c1nc(N1CCN(CCc3ccc(C(C)(C)C)cc3)CC1)n2Cc1ccccc1F` [Compound 47, 8-(4-(4-(tert-Butyl)phenethyl)piperazin-1-yl)-7-(2-fluorobenzyl)-3-methyl-3,7-dihydro-1H-purine-2,6-dione], the EC90 in the data set with West Nile virus was found to be 13.6 µM.
For the compound `Cn1c(=O)[nH]c(=O)c2c1nc(N1CCC(C(F)(F)F)CC1)n2Cc1ccccc1F` [Compound 55, 7-(2-Fluorobenzyl)-3-methyl-8-(4-(trifluoromethyl)piperidin-1-yl)-3,7-dihydro-1H-purine-2,6-dione], the EC90 in the data set on West Nile virus is greater than 10 µM.
Turning to `Cn1c(=O)[nH]c(=O)c2c1nc(N1CCC(c3ccc(C#N)cc3)CC1)n2Cc1ccccc1F` [Compound 58, 4-(1-(7-(2-Fluorobenzyl)-3-methyl-2,6-dioxo-2,3,6,7-tetrahydro-1H-purin-8-yl)piperidin-4-yl)benzonitrile], in the data set with West Nile virus, the EC90 is greater than 10 µM.
Still for that read-out and setting: the same measure for `Cn1c(=O)[nH]c(=O)c2c1nc(N1CCN(c3ccc(C(C)(C)C)cc3)CC1)n2Cc1ccccc1F` [Compound 29, 8-(4-(4-(tert-Butyl)phenyl)piperazin-1-yl)-7-(2-fluorobenzyl)-3-methyl-3,7-dihydro-1H-purine-2,6-dione]: greater than 10 µM; for `Cn1c(=O)[nH]c(=O)c2c1nc(N1CCN(c3ccccn3)CC1)n2Cc1ccccc1F` [Compound 33, 7-(2-Fluorobenzyl)-3-methyl-8-(4-(pyridin-2-yl)piperazin-1-yl)-3,7-dihydro-1H-purine-2,6-dione]: greater than 10 µM.
On to `Cn1c(=O)[nH]c(=O)c2c1nc(N1CCC(Cc3ccc(F)cc3)CC1)n2Cc1ccccc1F` [Compound 60, 7-(2-Fluorobenzyl)-8-(4-(4-fluorobenzyl)piperidin-1-yl)-3-methyl-3,7-dihydro-1H-purine-2,6-dione], for which the EC90 in the data set with West Nile virus was greater than 10 µM.
For `Cn1c(=O)[nH]c(=O)c2c1nc(N1CCC(C(C)(C)C)CC1)n2Cc1ccccc1F` [Compound 54, 8-(4-(tert-Butyl)piperidin-1-yl)-7-(2-fluorobenzyl)-3-methyl-3,7-dihydro-1H-purine-2,6-dione], the EC90 in the data set with West Nile virus was determined as 1.5 µM.
In the case of `Cn1c(=O)[nH]c(=O)c2c1nc(N1CCN(C3CC3)CC1)n2Cc1ccccc1F` [Compound 23, 8-(4-Cyclopropylpiperazin-1-yl)-7-(2-fluorobenzyl)-3-methyl-3,7-dihydro-1H-purine-2,6-dione], in the data set on West Nile virus, the EC90 was greater than 10 µM.
`Cn1c(=O)[nH]c(=O)c2c1nc(N1CCC(Cc3cccnc3)CC1)n2Cc1ccccc1F` [Compound 62, 7-(2-Fluorobenzyl)-3-methyl-8-(4-(pyridin-3-ylmethyl)piperidin-1-yl)-3,7-dihydro-1H-purine-2,6-dione]: the EC90 with West Nile virus was 12.4 µM.
